16 molecules from PubChem BioAssay (NCI) can be followed below.

The structures appear in SMILES notation. “And” between values parts separate entries of the source, which are not always exact repeats. Equal entries are not always repeated.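 Results reflect a 48-hour exposure of cells in 96-well plates to compound at five concentrations. The concentration for 50% growth inhibition is given as GI50. TGI: concentration producing complete growth inhibition.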

Some test systems named below: HL-60(TB) leukemia; SF-539 CNS; COLO 205 colon; SK-MEL-5 melanoma; OVCAR-4 ovarian; KM12 colon; SK-MEL-28 melanoma; NCI-H460 lung; OVCAR-3 ovarian.
Holding throughout (test): DTP human tumour cell line panel, 48 h

On to `COC(=O)CCN(CCC(=O)OC)C1CC1`, for which the TGI in the assay with HL-60(TB) leukemia, in the assay with SF-539 CNS, in the assay on COLO 205 colon, in the assay on SK-MEL-5 melanoma, in the assay with OVCAR-4 ovarian and in the assay with KM12 colon was > 100 µM in each case. The TGI with SK-MEL-28 melanoma and with NCI-H460 lung was > 100 µM throughout.

Regarding `O=C1/C(=C/c2ccco2)NC(=S)N1CN1CCOCC1`, the concentration for total growth inhibition (TGI) with OVCAR-3 ovarian, with COLO 205 colon, with SK-MEL-5 melanoma, in the assay with OVCAR-4 ovarian, in the assay with KM12 colon and with SK-MEL-28 melanoma was > 100 µM throughout.

Take `Cc1n(CC(=O)c2ccccc2)nc2sc(N)n[n+]12`: the TGI with OVCAR-3 ovarian, with SF-539 CNS, in the assay on COLO 205 colon, in the assay with SK-MEL-5 melanoma, in the assay on OVCAR-4 ovarian and in the assay on KM12 colon was > 100 µM each time. For the same molecule, the TGI in the assay on SK-MEL-28 melanoma and in the assay on NCI-H460 lung was > 100 µM in each case.

Turning to `COc1cc(C(SCc2ccccc2)SCc2ccccc2)ccc1O`, the TGI in the assay on HL-60(TB) leukemia, in the assay on OVCAR-3 ovarian, in the assay with SF-539 CNS, with COLO 205 colon, in the assay with SK-MEL-5 melanoma and in the assay with KM12 colon was > 10 µM throughout. Further, the TGI with SK-MEL-28 melanoma and in the assay on NCI-H460 lung was > 10 µM throughout.

As to `N#Cc1c(N2CCN(c3ccc([N+](=O)[O-])cc3)CC2)[n+](=O)c2ccc(Cl)cc2n1[O-]`, the TGI in the assay on SF-539 CNS was 4.37 µM; with OVCAR-4 ovarian, 9.52 µM; in the assay with KM12 colon, 13.3 µM; in the assay with SK-MEL-28 melanoma, > 39.2 µM; in the assay with NCI-H460 lung, 3.7 µM.

Regarding `CC(C)CCC/C(CBr)=C(\Cl)CCl`, the TGI in the assay with OVCAR-3 ovarian was found to be 6.73 µM; in the assay on SF-539 CNS, 23.6 µM; with COLO 205 colon, 3.54 µM; in the assay with SK-MEL-5 melanoma, 6 µM; with OVCAR-4 ovarian, 2.93 µM; in the assay with KM12 colon, 5.51 µM. For the same molecule, the results for the TGI with SK-MEL-28 melanoma and in the assay with NCI-H460 lung were 5.19 µM and 18.5 µM, respectively.

In the case of `Cn1ccc(C(=O)NCCCCCNC(=O)c2ccn(C)c(=O)c2O)c(O)c1=O`, the TGI in the assay with HL-60(TB) leukemia, with COLO 205 colon, in the assay with SK-MEL-5 melanoma, in the assay on OVCAR-4 ovarian, with KM12 colon and in the assay on SK-MEL-28 melanoma was > 100 µM in each case. Moreover, the TGI in the assay on NCI-H460 lung was > 100 µM.

Regarding `O=C(O)c1ccc(Nc2nc3ccccc3nc2C(=O)O)cc1`, the TGI in the assay with OVCAR-3 ovarian, with SF-539 CNS, with COLO 205 colon, in the assay on SK-MEL-5 melanoma, in the assay on OVCAR-4 ovarian and with KM12 colon was > 100 µM throughout. Moreover, the TGI in the assay with SK-MEL-28 melanoma and in the assay on NCI-H460 lung was > 100 µM in each case.

Regarding `CN(C)CC(NC(NCS)C(=O)NCCNc1ccc(NCCNC(=O)C(NCS)NC(CN(C)C)OCCl)c2c1C(=O)c1c(O)ccc(O)c1C2=O)OCCl` (stereo not drawn), the GI50 in the assay with OVCAR-3 ovarian is 1.36 µM; with OVCAR-4 ovarian, 0.373 µM; in the assay on KM12 colon it was 0.211 µM; in the assay on SK-MEL-28 melanoma it was 2.18 µM. For the same molecule, the TGI with COLO 205 colon was 3.28 µM; in the assay on SK-MEL-5 melanoma, 0.94 µM; in the assay on OVCAR-4 ovarian, 2.78 µM and 1.3 µM; in the assay on KM12 colon, 1.53 µM and 1.84 µM; in the assay on NCI-H460 lung, 0.944 µM.

With `CC(C)(NC1=NCCO1)c1ccccc1`, the TGI in the assay on OVCAR-3 ovarian, in the assay on SF-539 CNS, with COLO 205 colon, with SK-MEL-5 melanoma, with OVCAR-4 ovarian and in the assay with KM12 colon was > 100 µM each time. Moreover, the TGI in the assay with SK-MEL-28 melanoma and in the assay with NCI-H460 lung was > 100 µM each time.

Consider `CC(C)C1=CC23CCC4C(C)(C(=O)O)CCCC4(C)C2CC1C(C(=O)O)C3C(=O)O` (stereo not drawn), for which the TGI with OVCAR-3 ovarian, in the assay with SK-MEL-5 melanoma, with OVCAR-4 ovarian, in the assay on KM12 colon, in the assay on SK-MEL-28 melanoma and with NCI-H460 lung was > 100 µM throughout.

For the molecule `C#CCOC(=O)C(N)CCCN=C(N)N` (stereo not drawn), the TGI with HL-60(TB) leukemia, in the assay on SF-539 CNS, with COLO 205 colon, with SK-MEL-5 melanoma, in the assay with OVCAR-4 ovarian and with KM12 colon was > 100 µM each time. Moreover, the TGI in the assay with SK-MEL-28 melanoma and with NCI-H460 lung was > 100 µM in each case.

Turning to `COc1cc(/C=C/C(=O)OC[C@H](Br)[C@H](OC(C)=O)c2ccc3c(c2)OCO3)cc(OC)c1OC`, the TGI in the assay with OVCAR-3 ovarian, in the assay on SF-539 CNS, with COLO 205 colon, in the assay with SK-MEL-5 melanoma, in the assay on OVCAR-4 ovarian and in the assay on KM12 colon was > 100 µM each time. For the same molecule, in the assay on SK-MEL-28 melanoma, the total growth inhibition concentration (TGI) is > 100 µM.

For `CN1CC2CC(C1)c1cccc(=O)n1C2` (stereo not drawn), the TGI in the assay on OVCAR-3 ovarian, in the assay on COLO 205 colon, in the assay with SK-MEL-5 melanoma, in the assay on OVCAR-4 ovarian, with KM12 colon and in the assay with NCI-H460 lung was > 100 µM in each case.

As to `OCCO[P+]1(OCCO)n2c3ccc2C(c2ccccc2)=C2C=CC(=N2)C(c2ccccc2)=c2ccc(n21)=C(c1ccccc1)C1=NC(=C3c2ccccc2)C=C1`, the TGI is 0.222 µM in the assay on HL-60(TB) leukemia; 1.34 µM in the assay on OVCAR-3 ovarian; 0.0651 µM in the assay on COLO 205 colon; 0.164 µM in the assay with SK-MEL-5 melanoma; 2.17 µM with OVCAR-4 ovarian; 0.21 µM in the assay on KM12 colon. The TGI in the assay on SK-MEL-28 melanoma was found to be 0.466 µM; with NCI-H460 lung, 1.04 µM.

Regarding `COc1ccc(/C=C2\CN(C)Cc3c2[nH]c(=O)c(C#N)c3-c2ccc(OC)cc2)cc1`, the TGI with HL-60(TB) leukemia was 31.8 µM; in the assay with OVCAR-3 ovarian it was > 100 µM; in the assay with COLO 205 colon it was > 100 µM; in the assay on SK-MEL-5 melanoma, > 100 µM; in the assay with OVCAR-4 ovarian, > 100 µM; in the assay on KM12 colon, > 100 µM. Further, the TGI in the assay on SK-MEL-28 melanoma and with NCI-H460 lung was > 100 µM throughout.
